Reference: patent US10314923B2, “Silybin injection and preparation method therefor” (TASLY PHARMACEUTICAL GROUP CO., LTD., priority 2015, dated 2019)

Tests used:
[1] = aqueous solution; cited from earlier work
[2] = Verification of preparation method of CN02125823.6: discoloration and UV scanning for destructiveness of NaOH to silybin; assay type: physicochemical; conditions: scanned within the wavelength of 190-600 nm
From the text: The Chinese patent application CN02125823.6 with the title “silymarin injection containing cyclodextrin or derivatives thereof” and the publication number of CN1391894A, according to the implementing scheme recorded in the Description, has the key technical features of adding silymarin into an aqueous solution containing cyclodextrin, regulating the pH of the solution to alkalinity using sodium hydroxide to dissolve silybin, and after dissolution, regulating the pH value to be 6.0 to 6.5 using hydrochloric acid to obtain a silymarin cyclodextrin inclusion compound. During verification, the silymarin is replaced with silybin, and the verification is strictly performed according to the implementing scheme described in embodiment 1 of the patent.
Dissolving 3 g of hydroxypropyl-β-cyclodextrin in 10 ml of water for injection, adding 300 mg of silybin, regulating the pH value to be 10 with 1N of NaOH solution, continuously stirring for 5 hours to dissolve the silybin, regulating the pH to be 6.5 with 1N of HCl solution, and performing filtration, bacterium removal, sub-packaging, freeze-drying and sealing, to obtain a silybin freeze-dried powder for injection.
However, for the preparation method of the present invention, the discoloration phenomenon is not found in the whole preparation process. […]

[3] = taken orally; Wu J W et al. 2007; cited from earlier work
[4] = Wang Hongchen 1983; cited from earlier work
[5] = Inclusion stability of silybin injections containing different types of cyclodextrin, standing at room temperature; assay type: physicochemical; conditions: 50 g of cyclodextrin in 1000 ml of water for injection
From the text: The types of cyclodextrin recorded in the Chinese patent application CN200410041364.0 include: β-cyclodextrin, hydroxypropyl-β-cyclodextrin, hydroxyethyl-β-cyclodextrin, methyl-β-cyclodextrin, glucosyl-β-cyclodextrin and sulfonyl-β-cyclodextrin. The cyclodextrin adopted in the present invention is sulfobutylether-β-cyclodextrin and is a specific inclusion material for the present invention. In contrast tests, silybin injections containing different types of cyclodextrin are respectively prepared by adopting the same formulation constituents, formulation dosage and preparation process. Standing is preformed at room temperature for one-week, and the inclusion stability of the injections is observed with the passage of time, that is, the time of medicine precipitation is regarded as a study index to screen the types of cyclodextrin.
Allow the injections to stand at room temperature for one week, and respectively observe the inclusion stability of the injections over time, i.e., study the influence of different types of cyclodextrins on the inclusion stability of silybin.

With `CNC[C@H](O)[C@@H](O)[C@H](O)[C@H](O)CO.COc1cc(C2Oc3ccc(C4Oc5cc(O)cc(O)c5C(=O)C4O)cc3OC2CO)ccc1O` (centres unmarked) [silybin N-methylglucamine] as the compound, how does the pH value [1] read?
The pH value was “about 11”.

With `COc1cc([C@@H]2Oc3cc([C@@H]4Oc5cc(O)cc(O)c5C(=O)[C@H]4O)ccc3O[C@H]2CO)ccc1O` [silybin, Silybin] as the compound, how does the “UV absorption peaks (verification of destructiveness caused by NaOH to silybin)” value [2] read?
The value was 287.5 nm.

What about the absolute bioavailability [3] of the same compound?
The absolute bioavailability was 0.95%.

And the “water solubility and lipid solubility” value [4]?
Its value is “poor”.

For `OC[C@H]1O[C@@H]2O[C@H]3[C@H](O)[C@@H](O)[C@@H](O[C@H]4[C@H](O)[C@@H](O)[C@@H](O[C@H]5[C@H](O)[C@@H](O)[C@@H](O[C@H]6[C@H](O)[C@@H](O)[C@@H](O[C@H]7[C@H](O)[C@@H](O)[C@@H](O[C@H]8[C@H](O)[C@@H](O)[C@@H](O[C@H]1[C@H](O)[C@H]2O)O[C@@H]8CO)O[C@@H]7CO)O[C@@H]6CO)O[C@@H]5CO)O[C@@H]4CO)O[C@@H]3CO` [β-cyclodextrin], which “dissolution of cyclodextrin in water” value [5] is on record?
The value was “cannot completely dissolve in water”.
